Test results published in the supplement of paper PMC10702517.
± gives the standard deviation.

Tests used:
[1] = chemical recovery from spiked human plasma; higher = better extraction; conditions: pooled human plasma
[2] = chemical recovery into PDMS from spiked human plasma; higher = better extraction; conditions: pooled human plasma, extraction method: PES with PDMS
[3] = chemical recovery by SPE of plasma after PDMS sampling; higher = better extraction; conditions: pooled human plasma, extraction method: HLB SPE of plasma after PES
[4] = extraction method: PES+SPE (3 d PDMS equilibration then HLB SPE)
[5] = extraction method: SPE only (HLB 96-well)
[6] = extraction method: SPE only (HLB 96-well), PES comparison experiment
[7] = extraction method: solvent precipitation (ACN + hexane)
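For chemical recovery by SPE of plasma after PDMS sampling in this document: over 400 spiked chemicals quantified by LC-HRMS or GC-HRMS via internal standard calibration, recovery relative to spike mix added to unspiked plasma extract to correct matrix effects.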

SMILES | chemical recovery [1, 4] | chemical recovery [1, 5] | chemical recovery [1, 6] | chemical recovery [1, 7] | chemical recovery into PDMS ([2]; equilibration time (d): 1) | chemical recovery by SPE of plasma ([3]; equilibration time (d): 1) | chemical recovery by SPE of plasma ([3]; equilibration time (d): 3) | chemical recovery by SPE of plasma ([3]; equilibration time (d): 6) | chemical recovery into PDMS ([2]; equilibration time (d): 3) | chemical recovery into PDMS ([2]; equilibration time (d): 6)
CC(C)NCC(O)COc1ccc(COCCOC(C)C)cc1 (stereo not given) [Bisoprolol] | 26.7 ± 3.1% | 42.2 ± 4% | 47.4 ± 6.3% | 70.7 ± 1.7% | 0.0185 ± 0.032% | 32.2 ± 3.3% | 34.4 ± 3.7% | 31.1 ± 2.7% | – | –
O=C(Nc1ccccc1-c1ccc(Cl)cc1)c1cccnc1Cl [Boscalid] | 63.9 ± 10% | 59.7 ± 2.4% | 48.2 ± 7.4% | 81.6 ± 1.8% | 41.6 ± 1.9% | 4.82 ± 0.75% | 5.2 ± 0.48% | 3.13 ± 0.17% | 45.5 ± 2.2% | 44.7 ± 0.64%
COc1ccccc1Oc1c(NS(=O)(=O)c2ccc(C(C)(C)C)cc2)nc(-c2ncccn2)nc1OCCO [Bosentan] | – | – | 49.7 ± 11% | 75.4 ± 4.9% | – | 40.6 ± 4.4% | 48.7 ± 5.1% | 42.2 ± 6.5% | 0.517 ± 0.46% | 0.935 ± 0.25%
N#Cc1cc(Br)c(O)c(Br)c1 [Bromoxynil] | 51 ± 4.9% | 43.9 ± 2.5% | 59.5 ± 6.2% | 68.2 ± 6.9% | – | 58.5 ± 9.5% | 62.9 ± 3.1% | 58.6 ± 2.6% | 0.00783 ± 0.014% | –
CCCC1O[C@@H]2C[C@H]3[C@@H]4CCC5=CC(=O)C=C[C@]5(C)[C@H]4[C@@H](O)C[C@]3(C)[C@]2(C(=O)CO)O1 (stereo not given in full) [Budesonide] | – | – | 50.5 ± 7% | – | 4.21 ± 7.3% | 35.3 ± 6.4% | – | 25 ± 2.6% | – | 22.6 ± 1.5%
CCCCc1c(C)nc(NCC)nc1OS(=O)(=O)N(C)C [Bupirimate] | – | – | 48.9 ± 8.9% | – | 40.3 ± 1.4% | – | 0.147 ± 0.26% | – | 43.9 ± 4.2% | 41.4 ± 2.6%
CCOc1nc2cccc(C(=O)O)c2n1Cc1ccc(-c2ccccc2-c2nnn[nH]2)cc1 [Candesartan] | 41.3 ± 6.7% | 42 ± 8% | 36.9 ± 3.9% | 58.8 ± 12% | – | 48 ± 8.7% | 50.1 ± 3% | 47.8 ± 4.2% | – | 0.00245 ± 0.0094%
NC(=O)N1c2ccccc2C=Cc2ccccc21 [Carbamazepine] | 61.4 ± 6.2% | 48.5 ± 5.5% | 52.6 ± 6.1% | 72.3 ± 2.5% | 22.2 ± 1.2% | 25.4 ± 2.9% | 21.1 ± 2.3% | 13.6 ± 1.4% | 28.4 ± 2.1% | 30.7 ± 1.8%
COC(=O)Nc1nc2ccccc2[nH]1 [Carbendazim] | 55.8 ± 5.5% | 58.8 ± 4.2% | 51.3 ± 6.5% | 76.8 ± 3.4% | 16.9 ± 1.1% | 31.6 ± 3.2% | 24.5 ± 2.5% | 10.6 ± 9.6% | 25.7 ± 2.7% | 27.6 ± 2.8%
CCNC(=O)[C@@H](C)OC(=O)Nc1ccccc1 [Carbetamide] | 50.4 ± 4.4% | 47.2 ± 3.9% | 53.1 ± 6.2% | 69.9 ± 2.7% | 8.92 ± 0.88% | 49.6 ± 7.6% | 45.6 ± 4.6% | 37.2 ± 8% | 14.1 ± 3.2% | 16.5 ± 2.4%
Cc1ccc(-c2cc(C(F)(F)F)nn2-c2ccc(S(N)(=O)=O)cc2)cc1 [Celecoxib] | – | 33.2 ± 6.9% | 47.6 ± 5% | 42.7 ± 2.1% | 1.77 ± 0.12% | 45.7 ± 5.5% | 39.7 ± 1.8% | 32.4 ± 1.7% | 6.98 ± 2.7% | 8.5 ± 3.5%
CCOP(=O)(OCC)OC(=CCl)c1ccc(Cl)cc1Cl [Chlorfenvinphos] | – | – | 49.5 ± 8.3% | – | 43.3 ± 1.2% | 0.151 ± 0.26% | – | – | 44.3 ± 3.6% | 44.1 ± 0.92%
Nc1cnn(-c2ccccc2)c(=O)c1Cl [Chloridazon] | 44.6 ± 2.8% | 37.3 ± 3% | 54.9 ± 6.3% | 73 ± 2.7% | 4.58 ± 0.31% | 53.7 ± 8.1% | 57.1 ± 3.2% | 51.8 ± 4.5% | 7.42 ± 1.7% | 8.14 ± 1.6%
